pIC50: −log10 of the molar value. Where two headings read alike, the source gives them in different places.
Columns and labels:
[1] = In vivo toxicity on IP dosing bid (no tumor named)
[2] = target: T1, EGF receptor autophosphorylation in A431 cells (Homo sapiens, UniProt P00533); experiment: Autophosphorylation assay in A431 cells; format: cell-based
T1 construct: A431 human epidermoid carcinoma cells were grown in 6-well plates; endogenous in cells; host or cells: A431 human epidermoid carcinoma cells
Experimental: (§1) Extracts were made by lysing the monolayers in 0.2 mL of boiling Laemlli buffer (2% sodium dodecyl sulfate, 5% beta-mercaptoethanol, 10% glycerol and 50 mM tris[hydroxymethyl]aminomethane (Tris), pH 6.8), and the lysates were heated to 100° C. for 5 minutes. Proteins in the lysate were separated by polyacrylamide gel electrophoresis and electrophoretically transferred to nitrocellulose. The membrane was washed once in 10 mM Tris, pH 7.2, 150 mM NaCl, 0.01% Azide (TNA), and blocked overnight in TNA containing 5% bovine serum albumin and 1% ovalbumin. The membrane was blotted for 2 hours with antiphosphotyrosine antibody (UBI, 1 μg/mL in blocking buffer) and then washed twice in TNA, once in TNA containing 0.05% Tween-20 detergent and 0.05% nonidet P-40 detergent and twice in TNA. […] Band intensities were determined with a Molecular Dynamics laser densitometer.
Duplicate sets of cells were treated with a range of concentrations of the designated compound to be tested as an inhibitor for 15 minutes. The cells were then stimulated with 100 ng/mL of EGF for 5 minutes and extracts made as described under the Western Blotting Procedure.

[3] = target: T1, EGF receptor autophosphorylation in A431 cells; experiment: Irreversibility test: recovery of EGF receptor autophosphorylation after washout; format: cell-based
Experimental: as §1
Duplicate sets of cells were treated with 2 μM of designated compound to be tested as an irreversible inhibitor for either 1 or 2 hours. One set of cells was then stimulated with 100 ng/mL of EGF for 5 minutes and extracts made as described under the western blotting procedure. The other set of cells were washed free of the compound with warmed serum-free media, incubated for 2 hours, washed again, incubated another 2 hours, washed again, and then incubated a further 4 hours. This set of cells was then stimulated with EGF and extracts made similar to the first set of cells.

[4] = target: EGF receptor tyrosine kinase (Homo sapiens, UniProt P00533); experiment: Tyrosine kinase assay, isolated EGF receptor tyrosine kinase; format: biochemical; details: read-out: EGFR Tyrosine Kinase IC50
[5] = system: murine 16/c mammary adenocarcinoma; experiment: Murine 16/c mammary adenocarcinoma model; format: in vivo, mice; details: doses of up to 120 mg/kg bid
Experimental: (§2) Female nude mice (NCr nu/nu, Taconic Farms) 18-20 g were implanted SC with tumor fragments (approximately 30 mg) in the region of the right axilla on Day 0. […] The vehicle was 6% dimethyl acetamide in 50 mM lactate buffer, pH 4.0Tumor volumes were recorded three times per week by measuring the length and width of the individual tumors and calculating the mass in milligrams according to the formula (a×b^2)/2, where a and b are the length and width of the tumor. Percent T/C (treated/control) was calculated based on the ratio of the median tumor volume of the treated tumors compared with the median tumor volume of the control tumors on specified measurement days.

[6] = system: A431 human epidermoid carcinoma; experiment: A431 tumor xenograft; format: in vivo, mice
Experimental: as §2

[7] = system: MCF7 human breast carcinoma; experiment: MCF-7 tumor xenograft; format: in vivo, mice
Experimental: as §2

[8] = system: SK-OV-3 human ovarian carcinoma; experiment: SK-OV-3 tumor xenograft; format: in vivo, mice; details: ID dosing bid Days 10-14, 17-21, 24-28, 30 mg/kg
Experimental: as §2

[9] = system: NIH 3T3 fibroblast transfected with the h-EGF receptor; experiment: EGFR tumor xenograft in nude mice; details: EGFR tumor, IP bid for 14 days
Experimental: as §2

[10] = EGF-stimulated EGFR autophosphorylation in A431 cells
[11] = A431 cells, 2 μM inhibitor, EGFR autophosphorylation
[12] = A431 cells, 2 μM inhibitor, washed, 8 hours drug-free

Sequence of EGF receptor tyrosine kinase (P00533 25-1210): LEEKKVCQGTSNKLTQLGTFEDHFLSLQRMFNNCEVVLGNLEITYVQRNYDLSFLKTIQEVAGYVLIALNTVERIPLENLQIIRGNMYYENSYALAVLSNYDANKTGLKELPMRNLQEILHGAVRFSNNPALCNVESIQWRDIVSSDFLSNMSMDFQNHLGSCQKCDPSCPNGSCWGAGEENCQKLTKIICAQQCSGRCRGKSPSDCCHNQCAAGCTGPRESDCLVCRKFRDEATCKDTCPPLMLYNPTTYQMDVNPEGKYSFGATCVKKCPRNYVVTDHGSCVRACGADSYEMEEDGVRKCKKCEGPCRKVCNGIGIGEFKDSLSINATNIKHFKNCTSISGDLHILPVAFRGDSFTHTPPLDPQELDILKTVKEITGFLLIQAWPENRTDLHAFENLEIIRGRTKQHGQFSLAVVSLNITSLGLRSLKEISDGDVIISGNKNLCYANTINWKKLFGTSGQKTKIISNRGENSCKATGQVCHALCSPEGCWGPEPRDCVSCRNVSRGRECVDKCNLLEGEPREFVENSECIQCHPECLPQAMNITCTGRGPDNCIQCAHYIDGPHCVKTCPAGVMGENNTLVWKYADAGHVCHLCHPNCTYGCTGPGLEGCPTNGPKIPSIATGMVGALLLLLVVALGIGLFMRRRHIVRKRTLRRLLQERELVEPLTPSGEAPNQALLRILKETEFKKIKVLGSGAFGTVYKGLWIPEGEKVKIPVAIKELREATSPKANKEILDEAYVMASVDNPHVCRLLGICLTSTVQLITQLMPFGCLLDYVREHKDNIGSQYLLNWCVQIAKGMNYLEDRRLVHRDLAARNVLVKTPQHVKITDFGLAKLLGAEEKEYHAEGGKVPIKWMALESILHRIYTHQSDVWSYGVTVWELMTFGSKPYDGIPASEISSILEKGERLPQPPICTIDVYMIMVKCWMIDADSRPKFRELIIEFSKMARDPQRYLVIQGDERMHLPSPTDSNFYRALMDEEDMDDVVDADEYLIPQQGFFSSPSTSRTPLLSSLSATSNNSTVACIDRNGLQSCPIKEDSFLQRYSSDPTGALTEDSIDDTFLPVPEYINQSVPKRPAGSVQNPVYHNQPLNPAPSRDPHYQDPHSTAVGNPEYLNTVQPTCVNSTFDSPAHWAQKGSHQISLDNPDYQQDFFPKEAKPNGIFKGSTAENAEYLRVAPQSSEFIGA
T1 sequence (P00533 25-1210): as above

| pIC50 [2, 10] | % Control After 2-Hour Incubation [3, 11] [%] | % Control After 8 Hours in Drug-Free Media Incubation [3, 12] [%] | pIC50 ([4]; isolated EGFR kinase) | melting point | SMILES | other results |
| --- | --- | --- | --- | --- | --- | --- |
| – | – | – | – | – | C=CS(=O)(=O)Nc1cc2c(Nc3cccc(Br)c3)ncnc2cn1 [Example 40, N-[4-(3-Bromo-phenylamino)-pyrido[3,4-d]pyrimidin-6-yl]-ethenylsulfonamide] | toxicity ([1]; 48 and 20 mg/kg): toxic |
| – | – | – | – | – | C=CC(=O)Nc1cc2c(Nc3cccc(Br)c3)ncnc2cc1OCCCn1ccnc1 [Example 25, N-[4-[(3-Bromophenyl)amino]-7-[3-(1,N-imidazyl)propoxy]quinazolin-6-yl]acrylamide] | pIC50 [2]: 7.68; % Control After 2-Hour Incubation [3]: 0%; % Control After 8 Hours in Drug-Free Media Incubation [3]: 0%; pIC50 [4]: 8.52 |
| 6.76 | 12 | 50 | 7.64 | – | C=CC(=O)Nc1ccc2sc3c(Nc4cccc(Br)c4)ncnc3c2c1 [Example 42, N-[4-(3-Bromo-phenylamino)-benzo[b]thieno [3,2-d]pyrimidin-8-yl]acrylamide] | – |
| – | – | – | – | – | C=CC(=O)Nc1ccc2ncnc(Nc3cccc(Br)c3)c2c1 [Example 11, N-[4-[(3-Bromophenyl)amino]quinazolin-6-yl]acrylamide] | activity [5]: Inactive; growth delay ([6]; IP bid Days 7-11, 21-25, 28 mg/kg): 28.2 days; growth delay ([6]; PO once daily Days 7-21, 100 mg/kg): 2 days; growth delay ([6]; PO once daily Days 7-21, 200 mg/kg): 3.5 days; growth delay ([7]; IP bid Days 1-5, 8-12, 15-19, 28 mg/kg): 22.9 days; growth delay ([7]; IP bid Days 1-5, 8-12, 15-19, 47 mg/kg): 17.4 days; growth delay [8]: 1.2 days |
| – | – | – | – | 105 to 107 °C | C=CC(=O)Nc1cc2c(Nc3cccc(Br)c3)ncnc2cc1OCCCN1CCN(C)CC1 [Example 24, N-[4-[(3-Bromophenyl)amino]-7-[3-(4,N-methyl-1,N-piperazino)propoxy]quinazolin-6-yl]acrylamide] | pIC50 [2]: 8.10; pIC50 [4]: 8.40 |
| 8.35 | 0 | 0 | 9.04 | – | C=CC(=O)Nc1ccc2ncnc(Nc3cccc(C(F)(F)F)c3)c2c1 [Example 20, N-[4-[(3-(Trifluoromethyl)phenyl)amino]quinazolin-6-yl]acrylamide] | – |
| < 6.30 | 81 | 95 | 6.91 | 174 to 175 °C | CC(=O)N(c1cccc(Br)c1)c1ncnc2ccc(N3C(=O)C=CC3=O)cc12 [Example 58, N-(3-Bromo-phenyl)-N-[6-(2,5-dioxo-2,5-dihydro-pyrrol-1-yl)-quinazolin-4-yl]-acetamide] | – |
| 7.05 | 1 | 90 | 8.80 | 269.7 to 270 °C | C=CC(=O)Nc1ccc2c(Nc3cccc(C)c3)ncnc2c1 [Example 13, N-[4-(3-Methyl-phenylamino)-quinazolin-7-yl]acrylamide] | – |
| 8.08 | 0 | 0 | 9.32 | 221 to 223 °C (dec.) | C=CC(=O)Nc1cc2c(Nc3cccc(C)c3)ncnc2cn1 [Example 37, N-[4-(3-Methyl-phenylamino)-pyrido [3,4-d]pyrimidin-6-yl]acryl] | – |
| 7.28 | 0 | 50 | 9.60 | – | C=CC(=O)Nc1ccc2c(Nc3cccc(Cl)c3)ncnc2c1 [Example 14, N-[4-(3-Chloro-phenylamino)-quinazolin-7-yl]acrylamide] | – |
| 8.25 | 0 | 0 | 8.96 | 226 to 228 °C | C=CC(=O)Nc1ccc2ncnc(Nc3cccc(Br)c3)c2n1 [Example 41, N-[4-(3-Bromo-phenylamino)-pyrido [3,2-d]pyrimidin-6-yl]-acrylamide] | – |
| 5.68 | 55 | 98 | 7.05 | 86 to 88 °C (dec.) | C=CC(=O)N(CCCN1CCOCC1)c1ccc2c(Nc3cccc(Br)c3)ncnc2c1 [Example 4, N-[4-[(3-Bromophenyl)amino]quinazolin-7-yl]-N-[3-morpholinopropyl]acrylamide] | – |
| 7.57 | 0 | 0 | 8.82 | 69 to 72 °C | C=CC(=O)Nc1cc2c(Nc3cccc(C)c3)ncnc2cc1OCCCN1CCOCC1 [Example 22, N-[4-[(3-Methylphenyl)amino]-7-[3-(4-moroholino)-propoxy]quinazolin-6-yl]acrylamide] | – |
| – | – | – | – | – | C=CC(=O)Nc1cc2c(Nc3cccc(Br)c3)ncnc2cc1OCCCN1CCOCC1 [Example 21, N-[4-[(3-Bromophenyl)amino]-7-[3-(4-morpholino)propoxy]quinazolin-6-yl]acrylamide] | toxicity ([1]; 48 mg/kg): toxic |
| 6.49 | 13 | 42 | 7.68 | 251 to 252.4 °C | C=CC(=O)Nc1ccc2c(c1)sc1c(Nc3cccc(Br)c3)ncnc12 [Example 44, N-[4-(3-Bromo-phenylamino)-benzo[b]thieno [3,2-d]pyrimidin-7-yl]acrylamide] | – |
| 5.61 | 30 | 85 | 8.43 | – | C=CS(=O)(=O)Nc1ccc2c(Nc3cccc(Br)c3)ncnc2c1 [Example 16] | – |

| SMILES | pIC50 [2, 10] | % Control After 2-Hour Incubation [3, 11] [%] | % Control After 8 Hours in Drug-Free Media Incubation [3, 12] [%] | pIC50 ([4]; isolated EGFR kinase) | melting point | other results |
| --- | --- | --- | --- | --- | --- | --- |
| C=CC(=O)Nc1cc2c(Nc3cccc(Br)c3)ncnc2cc1OCCCCN(C)C [Example 26, N-[4-[(3-Bromophenyl)amino]-7-[4-(N,N-dimethyl-amino)butoxy]quinazolin-6-yl]acrylamide] | 8.52 | 0 | 0 | 8.77 | 112 to 115 °C | – |
| C=CC(=O)Nc1ccc2ncnc(Nc3cccc(C)c3)c2c1 [Example 19, N-[4-[(3-methylphenyl)amino]quinazolin-6-yl]acrylamide] | 8.33 | 0 | 0 | 9.38 | – | growth delay ([6]; SC-Infusion (Alzet) Days 9-23, 12 mg/kg/day): 15 days; growth delay ([6]; SC-Infusion (Alzet) Days 9-23, 24 mg/kg/day): 14 days; growth delay ([9]; 48 mg/kg): 6.4 days; growth delay ([9]; 77 mg/kg): 7.9 days; growth delay ([9]; 124 mg/kg): 11.8 days; toxicity ([9]; 200 mg/kg): toxic; growth delay [8]: 1.3 days |
| C=CC(=O)Nc1cccc2c1sc1c(Nc3cccc(Br)c3)ncnc12 [Example 43, N-[4-(3-Bromo-phenylamino)-benzo[b]thieno[3,2-d]-pyrimidin-6-yl]acrylamide] | 7.62 | 0 | 0 | 8.85 | – | – |
| C=CC(=O)Nc1cc2c(Nc3cccc(C)c3)ncnc2cc1OCCCN1CCN(C)CC1 [Example 23, N-[4-[(3-Methylphenyl)amino]-7-[3-(4,N-methyl-1,N-piperazino)propoxy]quinazolin-6-yl]acrylamide] | 7.74 | 0 | 0 | 8.70 | – | – |

From patent publication US7786131B2, “Pyrimido[5,4-d]pyrimidines derivatives as irreversible inhibitors of tyrosine kinases” (Warner-Lambert Company, priority 1996, dated 2010)
